Assay results: patent publication US9169241B2, “Quinolinyloxyphenylsulfonamides” (Max-Planck-Gesellschaft Zur Forderung der Wissenschaften …, priority 2009, dated 2015)
Read-outs that look alike come from different tables or passages of the source. Blank lines part the entries; values can stand above or below the compound they belong to.

How the values were obtained:
indicated cell line = experiment: Wound healing migration assay (Table IV); assay type: cell-based; conditions: compounds at 12.5, 6.25, 3.125 μM, 48 h-72 h
Outline: (§1)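 Cells seeded at 150000/24 well, grown to monolayer overnight, scratched with a pipette tip, then treated with compound at 12.5, 6.25 or 3.125 μM versus DMSO. Stopped by crystal violet fixation at 48-72 h once control wounds closed; IC50 taken as 50% wound size between t0 and t48 or t72.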

A172 [1] = experiment: Matrigel outgrowth assay/branching assay; assay type: cell-based; conditions: Homo sapiens, A 172, Table Vb, read-out: Total branching inhibition in Matrigel A172
Outline: (§2)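 Cells (5000/well) were seeded onto polymerized 3 mg/ml Matrigel with compound at 3.125, 1.56 or 0.78 μM, or DMSO. Imaging by inverted microscopy at 48, 72 and 96 h scored invasive branching. Only concentrations giving total branching inhibition counted as positive.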

Hs578T [2] = experiment: Matrigel outgrowth assay/branching assay; assay type: cell-based; conditions: Homo sapiens, Hs-578T; HS578T cell line; Table Ib; read-out: Total branching inhibition in Matrigel HS578T
Outline: as §2

U118 [3] = experiment: Matrigel outgrowth assay/branching assay; assay type: cell-based; conditions: Table Vb, read-out: Total branching inhibition in Matrigel U118
Outline: as §2

SF126 [4] = experiment: Matrigel outgrowth assay/branching assay; assay type: cell-based; conditions: Homo sapiens, SF-126, Table Vb, read-out: Total branching inhibition in Matrigel SF126
Outline: as §2

Hs578T [5] = experiment: Wound healing migration assay; assay type: cell-based; conditions: Homo sapiens, Hs-578T; HS578T cell line; Table Ib
Outline: as §1

A172 [6] = experiment: Cell vitality assay (ATP assay, CellTiter-Glo); assay type: cell-based; conditions: Homo sapiens, A 172; A172, 72 h; Table IIa; read-out: IC50 ATP-Assay after 72 h A172
Outline: (§3)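 1000 cells/well were exposed to compound at 12.5 μM down to 0.195 μM (twofold steps) or DMSO for 72 h. ATP was then measured by luminescence after 10 min reagent lysis at room temperature. IC50 was taken as the concentration giving 50% of the DMSO-control ATP level.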

Hs578T [7] = experiment: Cell vitality assay (ATP assay, CellTiter-Glo); assay type: cell-based; conditions: Homo sapiens, Hs-578T; HS578T cell line, 72 h; Table Ib; read-out: IC50 ATP-Assay HS578T after 72 h
Outline: as §3

U118 [8] = experiment: Cell vitality assay (ATP assay, CellTiter-Glo); assay type: cell-based; conditions: U118, 72 h; Table IIa; read-out: IC50 ATP-Assay after 72 h U118
Outline: as §3

SF126 [9] = experiment: Cell vitality assay (ATP assay, CellTiter-Glo); assay type: cell-based; conditions: Homo sapiens, SF-126; SF126, 72 h; Table IIa; read-out: IC50 ATP-Assay after 72 h SF126
Outline: as §3

tumor cell = experiment: Matrigel outgrowth assay/branching assay (Table Va); assay type: cell-based
Outline: as §2

viable cells in culture = experiment: Cell viability assay at 10 μM (CellTiter-Glo, Table VII); assay type: cell-based; conditions: compound 10 μM, 72 h;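 also: graded A 0-20%; B 21-40%; C 41-60%; D over 60% viable cells relative to DMSO control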
Outline: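 Viable cell number was measured with the CellTiter-Glo Luminescent Cell Viability Assay (Promega), following the manufacturer's protocol, which quantifies ATP as a marker of metabolically active cells. In 96-well plates, 1000 cells/well in 100 μl medium were exposed to compound at 10 μM, or to DMSO control, for 72 h. Values were calculated relative to DMSO-control ATP.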

cells = experiment: Boyden chamber migration assay (Table VI); assay type: cell-based; conditions: Homo sapiens, Hs-578T, 16 h, Hs578T cells; 16 h migration
Outline: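 20000 cells seeded in the upper compartment in 0% FCS plus 0.1% BSA and left 16 h to migrate through […] membrane toward 10% FCS medium below. Non-migrated cells swabbed off; cells on the filter underside fixed and counted.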

Hs578T [10] = experiment: Apoptosis assay (Cellomics, nucleus condensation); assay type: cell-based; conditions: Homo sapiens, Hs-578T, Table III, read-out: Apoptosis induction in Hs578T
Outline: (§4)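 Readout: per-nucleus Hoechst 33342 fluorescence intensity and its population variation, plus number of detected cells, by automated CCD imaging. Live cells, 5000/well; compound 0.39–12.5 μM (twofold series) vs DMSO, read at 24 h and 48 h.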

SF763 = experiment: Apoptosis assay (Cellomics, nucleus condensation); assay type: cell-based; conditions: Table III, read-out: Apoptosis induction in SF763
Outline: as §4

U118 [11] = experiment: Apoptosis assay (Cellomics, nucleus condensation); assay type: cell-based; conditions: Table III, read-out: Apoptosis induction in U118
Outline: as §4

C8161 = experiment: Apoptosis assay (Cellomics, nucleus condensation); assay type: cell-based; conditions: Homo sapiens, Table III, read-out: Apoptosis induction in C8161
Outline: as §4

SF126 [12] = experiment: Apoptosis assay (Cellomics, nucleus condensation); assay type: cell-based; conditions: Homo sapiens, SF-126, Table III, read-out: Apoptosis induction in SF126
Outline: as §4

U138 = experiment: Apoptosis assay (Cellomics, nucleus condensation); assay type: cell-based; conditions: Table III, read-out: Apoptosis induction in U138
Outline: as §4

[13] = Homo sapiens, A 172, A172 cells, read-out: IC50 Wound healing Assay A172
[14] = Homo sapiens, SF-126, SF126 cells, read-out: IC50 Wound healing Assay SF126
[15] = U118 cells, read-out: IC50 Wound healing Assay U118

SMILES: COc1cc2c(Oc3ccc(NS(=O)(=O)c4cc(F)ccc4F)cc3F)ccnc2cc1OCCCN1CCCCC1C (centres unmarked) [Example 151, 2,5-Difluoro-N-(3-fluoro-4-{6-methoxy-7-[3-(2-methyl-piperidin-1-yl)-propoxy]-quinolin-4-yloxy}-phenyl)-benzenesulfonamide]
IC50 (indicated cell line; [13]): ≤ 12.5 µM
IC50 (indicated cell line; [14]): ≤ 12.5 µM
IC50 (indicated cell line; [15]): ≤ 12.5 µM
IC100 (A172 [1]): ≤ 12.5 µM
IC50 (Hs578T [2]): ≤ 10 µM
IC100 (U118 [3]): ≤ 12.5 µM
IC100 (SF126 [4]): ≤ 12.5 µM
IC50 (Hs578T [5]): ≤ 12.5 µM
melting point: 120 to 122 °C
IC50 (A172 [6]): ≤ 12.5 µM
IC50 (Hs578T [7]): ≤ 12.5 µM
IC50 (U118 [8]): ≤ 12.5 µM
IC50 (SF126 [9]): ≤ 12.5 µM

SMILES: COc1cc2c(Oc3ccc(NS(=O)(=O)c4cc(F)ccc4F)cc3F)ccnc2cc1OCCCN(C)C [Example 177, N-{4-[7-(3-Dimethylamino-propoxy)-6-methoxy-quinolin-4-yloxy]-3-fluoro-phenyl}-2,5-difluoro-benzenesulfonamide]
IC50 (indicated cell line; [13]): ≤ 12.5 µM
IC50 (indicated cell line; [14]): ≤ 12.5 µM
IC50 (indicated cell line; [15]): ≤ 12.5 µM
IC100 (A172 [1]): ≤ 12.5 µM
IC50 (Hs578T [2]): ≤ 10 µM
IC100 (U118 [3]): ≤ 12.5 µM
IC100 (SF126 [4]): ≤ 12.5 µM
IC50 (Hs578T [5]): ≤ 12.5 µM
melting point: 108 to 110 °C
IC50 (A172 [6]): ≤ 12.5 µM
IC50 (Hs578T [7]): ≤ 12.5 µM
IC50 (U118 [8]): ≤ 12.5 µM
IC50 (SF126 [9]): ≤ 12.5 µM

SMILES: COc1cc2c(Oc3ccc(NS(=O)(=O)c4ccccc4C(F)(F)F)cc3F)ccnc2cc1OCCCN1CCCCC1 [Example 4, N-{3-Fluoro-4-[6-methoxy-7-(3-piperidin-1-yl-propoxy)-quinolin-4-yloxy]-phenyl}-2-trifluoromethyl-benzenesulfonamide]
IC50 (indicated cell line; [13]): ≤ 12.5 µM
IC50 (indicated cell line; [14]): ≤ 12.5 µM
IC50 (indicated cell line; [15]): ≤ 12.5 µM
IC100 (A172 [1]): > 12.5 µM
IC50 (Hs578T [2]): ≤ 10 µM
IC100 (U118 [3]): ≤ 12.5 µM
IC100 (SF126 [4]): ≤ 12.5 µM
IC50 (Hs578T [5]): ≤ 12.5 µM
melting point: 173 to 175 °C
IC50 (A172 [6]): ≤ 12.5 µM
IC50 (Hs578T [7]): ≤ 12.5 µM
IC50 (U118 [8]): ≤ 12.5 µM
IC50 (SF126 [9]): ≤ 12.5 µM

IC50 (tumor cell; Homo sapiens, C8161 cells, read-out: Total branching inhibition in Matrigel C8161): ≤ 5 µM
IC50 (tumor cell; Homo sapiens, Hs-578T, Hs578T cells, read-out: Total branching inhibition in Matrigel Hs578T): ≤ 5 µM
IC50 (tumor cell; U118 cells, read-out: Total branching inhibition in Matrigel U118): ≤ 5 µM
IC50 (tumor cell; U138 cells, read-out: Total branching inhibition in Matrigel U138): 5 to 50 µM
IC50 (indicated cell line; Homo sapiens, C8161 cells, read-out: IC50 Wound healing Assay C8161): 12.5 to 50 µM
IC50 (cells): ≤ 5 µM
IC50 (Hs578T [10]): ≤ 12.5 µM
IC50 (SF763): ≤ 12.5 µM
IC50 (U118 [11]): ≤ 12.5 µM
IC50 (C8161): ≤ 12.5 µM
IC50 (SF126 [12]): ≤ 12.5 µM
IC50 (U138): ≤ 12.5 µM
melting point: 145 to 146 °C
SMILES: COc1cc2c(Oc3ccc(NS(=O)(=O)c4cc(Cl)cc(Cl)c4OC)cc3F)ccnc2cc1OCCCN1CCCC(C)C1 (centres unmarked) [Example 75, 3,5-Dichloro-N-(3-fluoro-4-{6-methoxy-7-[3-(3-methyl-piperidin-1-yl)-propoxy]-quinolin-4-yloxy}-phenyl)-2-methoxy-benzenesulfonamide]
viability at 10 µM (viable cells in culture; Homo sapiens, HCT-116, HCT116 def, read-out: percentage (%) of viable cells HCT 116def): 21 to 40%
viability at 10 µM (viable cells in culture; Homo sapiens, HCT-116, HCT116 wt, read-out: percentage (%) of viable cells HCT 116wt): 21 to 40%
viability at 10 µM (viable cells in culture; Homo sapiens, HT-29, HT29, read-out: percentage (%) of viable cells HT29): 0 to 20%
viability at 10 µM (viable cells in culture; Homo sapiens, NCI-H358, H358, read-out: percentage (%) of viable cells H358): 0 to 20%
viability at 10 µM (viable cells in culture; Homo sapiens, NCI-H1650, H1650, read-out: percentage (%) of viable cells H1650): 21 to 40%
viability at 10 µM (viable cells in culture; Homo sapiens, NCI-H1666, H1666, read-out: percentage (%) of viable cells H1666): 41 to 60%
viability at 10 µM (viable cells in culture; Homo sapiens, NCI-H1975, H1975, read-out: percentage (%) of viable cells H1975): 0 to 20%
viability at 10 µM (viable cells in culture; Homo sapiens, NCI-H1993, H1993, read-out: percentage (%) of viable cells H1993): 21 to 40%
viability at 10 µM (viable cells in culture; Homo sapiens, A549, read-out: percentage (%) of viable cells A549): > 60%
viability at 10 µM (viable cells in culture; Homo sapiens, HCC827, read-out: percentage (%) of viable cells HCC827): > 60%
viability at 10 µM (viable cells in culture; Homo sapiens, SW480, read-out: percentage (%) of viable cells SW480): 0 to 20%
viability at 10 µM (viable cells in culture; RKO, read-out: percentage (%) of viable cells RKO): 0 to 20%
IC50 (Hs578T [2]): ≤ 10 µM
